According to patent US10537567B2, “Kinase inhibitors for treatment of disease” (BioAxone BioSciences, Inc., priority 2017, dated 2020):

Legend:
[1] = biological target: 468-target kinome screen; experiment: DiscoverX kinome screen, off-target hits; format: binding, human; conditions: 10,000 nM API
Protocol: A 468-target kinome screen and a safety screen were carried out to examine the off-target profiles of different kinase inhibitors (DiscoverX, Freemont, Calif.). The kinome screen is a binding assay where API interference of kinase domain/substrate binding is assessed as percent of control. Less than 10% binding (or >90% binding inhibition) is most biologically relevant and considered as a ‘hit’. BA-2017 only had 7 off-target hits compared to BA-1049 and Netarsudil, which both had 11 hits (Table 1) (Studirvant et al. 2016 Bioorg Med Chem Lett. 26(10):2475-2480). […] Published data for Netarsudil were with 200 times less API. […] The NET activity likely helps to decrease IOP but might increase hyperemia, while the SERT activity might have long-term safety consequences (Costagliola et al. 2004 CNS drugs 18(8): p. 475-484).
In the kinome screen BA-2017 had fewer off-target hits (Table 1) than BA-1049. […] An interesting hit from the kinome screen was on Abl (Table 1), an oncogene that also regulates many cellular activities, including vascular leakage.

[2] = tested on: GPCRs, transporters, ion channels, nuclear receptors, non-kinase enzymes; experiment: Safety screen of 88 targets; design: species or system human; conditions: agonistic or antagonistic
Description: These targets include GPCRs, transporters, ion channels, nuclear receptors, non-kinase enzymes.

[3] = tested on: human TM cells; experiment: Fibronectin immunoblot in TGFβ-stimulated TM cells; format: cell-based; conditions: 2.5 ng/ml TGFβ, 0-100 μM, 24 hours
[4] = Microbead model of glaucoma in rats; format: in vivo, Sprague Dawley rat; conditions: ocular treatment vs vehicle-treated eyes
Protocol: The different markers of RGC dysfunction are examined in a rat model of glaucoma where latex microspheres are injected into the anterior chamber of the eye to block outflow through the TM. In Sprague Dawley rat RGC loss is 20%-30% over a 4-6 weeks period when 20 μL of beads are injected weekly. This severe model is used to start to determine the amount of API in the retina 1 hour after topical installation of the API/latanoprost combination. Rats are topically dosed with API/Latanoprost for a week after microbead injection, a time when IOP is elevated. The right eyes serve as non-glaucomatous controls.
BIII tubulin expression is decreased in RGCs in glaucoma (Soto et al. 2008 J Neurosci. 28(2): p. 548-561). Loss of BIII tubulin is a biomarker of early RGC degeneration. […] BIII tubulin is observed in radial sections, and RGCs identified by labeling with Brin3. For quantitative comparisons, control and treated radial cryostat sections are cut in the same block and mounted on the same slide, and labeled together with BIII isotype-specific antibodies.
ROCK activation is examined in the same microbead model of glaucoma in rats 4 weeks after daily topical dosing in rats with left and right eyes injected with beads. API alone or API+Latanoprost are delivered once daily by 15 μL eye drop instilled into the left eyes (glaucoma/treated) and right eyes left untreated (glaucoma/untreated). […]

[5] = tested on: retinal ganglion cells; experiment: RGC dendritic arbor in Hb9-GFP glaucoma mice; format: in vivo; conditions: 1 month, weekly microbead injection, daily eye drops
Description: To evaluate changes in the RGC dendritic arbor in glaucoma and the ability of the API to prevent neuronal loss in the retina, mice are used which carry an enhanced GFP (eGFP) driven by the Hb9 promoter (B6.Cg-Tg(Hlxb9-GFP)1Tmj/J; Jackson Labs), which directs GFP expression to the on-off direction-sensitive ganglion cell (ooDSGC) sub-population of retinal ganglion cells (Trenholm et al. 2011 Neuron. 71(4): p. 683-694). These mice allow visualization of non-overlapping RGCs for unambiguous identification of individual dendritic arbors. Treated and control glaucoma eyes are examined, as well as normal eyes 1 month after weekly microbead injection and daily eye drops. The eyes are fixed by perfusion and prepared for retinal whole mounts, and the labeled ganglion cells visualized by fluorescence microscopy. Images are imported into ImageJ and analyzed for dendritic field area (using the polygon tool to join points along the perimeter of the field) and subjected to Sholl analysis using the plugin for Image J to be able to characterize dendritic branching and complexity of normal, glaucoma/treated and glaucoma/control RGCs.

[6] = tested on: cultured primary cortical neurons; experiment: Beta-amyloid and phosphorylated Tau in cortical neurons from 3×-Tg AD mice; format: cell-based; conditions: 1, 10 or 50 μM, 24 or 48 hours
Description: Alzheimer's disease is the most common cause of dementia in the population. Pathologic hallmarks of the disease include the presence in the brain of beta-amyloid bearing plaques and neurofibrillary tangles containing hyperphosphorylated microtubule-associated protein Tau. The 3×-Tg AD mouse model was developed to serve as a rodent model for the development of the biochemical hallmarks of human Alzheimer's disease. This mouse strain harbors 3 transgenes encoding mutant Presenilin-1 (PS1), human Swedish mutant Amyloid Precursor Protein (APP-Swe), and mutant P301L-Tau and is obtained from Jackson Laboratories (Bar Harbor, Me.). […] Similarly, Cancino et al (Cancino et al.; Neurobiol. Aging; 2011; 32:1249) identified the role of increased c-Abl kinase activity in transgenic AD model mice to direct increased phosphorylation of Tau.
Whole brain cortices from one day old (P1) 3×-Tg AD mice (Jackson Labs) are dissected and then dissociated using trypsinization and trituration before being cultured under serum free conditions (NeuroBasal Medium plus B27 supplements; Thermo-Fisher) on dishes pre-coated with poly-ornithine and laminin as growth substrate. The cultures are plated in 24 well tissue culture plates, with 100 to 200,000 cells per well at plating. Cultures are maintained for 5 to 7 days, with half-volume medium changes every other day, before testing of inhibitor treatments. […] Protein extracts are prepared in RIPA buffer and protein concentrations in each extract are determined using the Pierce BCA assay (Pierce Biotechnology). Equivalent amounts of protein from each extract are separated on 4-12% polyacrylamide Bis-Tris gels run in MES buffer (Thermo-Fisher). After transferring to PVDF membranes, the Western blots are processed to examine the levels of beta-amyloid precursor protein (βPAPP), the peptide β-amyloid (Aβ), and levels of both phosphorylated and total tau protein.
For these Western blotting experiments, hyperphosphorylated Tau is detected using antibody AT8-phospho-Ser-202/Thr-205 (Pierce Biotechnology, Rockford, Ill.); total phosphorylated and nonphosphorylated tau is detected with Tau5 antibody (Calbiochem, San Diego, Calif.); total PAPP is detected using monoclonal antibody 22C11 (EMD-Millipore) and Aβ peptide levels are detected using monoclonal antibody 6E10 (BioLegend; San Diego, Calif.). The form of Aβ present can be estimated by comparison to purified Aβ 1-40, 1-42 peptides (AnaSpec; Fremont, Calif.) run as standards on companion gels.

Structure (SMILES)	Kinome Screen Other (other off-target kinase) [1]	# Hits <10% binding ([1]; hit = less than 10% binding (>90% binding inhibition))	Off-target hits in safety screen [2]	Fibronectin levels [3]	BIII tubulin immunostaining in glaucoma eyes [4]	Retinal ganglion cell dendritic arbors [5]	Accumulation of phosphorylated forms of Tau protein [6]	Production of Aβ peptide [6]
C[C@H](N)C1CCN(S(=O)(=O)c2cccc3cnccc23)CC1 [BA-1076]	(ABL)	7	no significant off target hits were detected	Fibronectin levels decreased dose-dependently	prevents the loss of BIII tubulin immunostaining	protect and/or restore retinal ganglion cell dendritic arbors	dose-dependent reduction in the accumulation of phosphorylated forms of Tau protein	reduced production of Aβ peptide
C[C@H](N)C1CCN(S(=O)(=O)c2cccc3c(=O)[nH]ccc23)CC1 [BA-2057]	none	–	no significant off target hits were detected	more potent in decreasing fibronectin deposition than BA-1076	prevents the loss of BIII tubulin immunostaining	protect and/or restore retinal ganglion cell dendritic arbors	dose-dependent reduction in the accumulation of phosphorylated forms of Tau protein	reduced production of Aβ peptide
